The source made the active and inactive calls.
Tests used:
[1] = biological target: Induced myeloid leukemia cell differentiation protein Mcl-1 (Homo sapiens, UniProt Q07820); type: functional
[2] = biological target: T1, Replicative DNA helicase DnaB (Mycobacterium tuberculosis, UniProt P9WMR3); assay: DnaB intein splicing inhibitors, dose response, biochemical, cell-free fluorescence (AID 449749); type: functional
T1 sequence (P9WMR3 whole entry): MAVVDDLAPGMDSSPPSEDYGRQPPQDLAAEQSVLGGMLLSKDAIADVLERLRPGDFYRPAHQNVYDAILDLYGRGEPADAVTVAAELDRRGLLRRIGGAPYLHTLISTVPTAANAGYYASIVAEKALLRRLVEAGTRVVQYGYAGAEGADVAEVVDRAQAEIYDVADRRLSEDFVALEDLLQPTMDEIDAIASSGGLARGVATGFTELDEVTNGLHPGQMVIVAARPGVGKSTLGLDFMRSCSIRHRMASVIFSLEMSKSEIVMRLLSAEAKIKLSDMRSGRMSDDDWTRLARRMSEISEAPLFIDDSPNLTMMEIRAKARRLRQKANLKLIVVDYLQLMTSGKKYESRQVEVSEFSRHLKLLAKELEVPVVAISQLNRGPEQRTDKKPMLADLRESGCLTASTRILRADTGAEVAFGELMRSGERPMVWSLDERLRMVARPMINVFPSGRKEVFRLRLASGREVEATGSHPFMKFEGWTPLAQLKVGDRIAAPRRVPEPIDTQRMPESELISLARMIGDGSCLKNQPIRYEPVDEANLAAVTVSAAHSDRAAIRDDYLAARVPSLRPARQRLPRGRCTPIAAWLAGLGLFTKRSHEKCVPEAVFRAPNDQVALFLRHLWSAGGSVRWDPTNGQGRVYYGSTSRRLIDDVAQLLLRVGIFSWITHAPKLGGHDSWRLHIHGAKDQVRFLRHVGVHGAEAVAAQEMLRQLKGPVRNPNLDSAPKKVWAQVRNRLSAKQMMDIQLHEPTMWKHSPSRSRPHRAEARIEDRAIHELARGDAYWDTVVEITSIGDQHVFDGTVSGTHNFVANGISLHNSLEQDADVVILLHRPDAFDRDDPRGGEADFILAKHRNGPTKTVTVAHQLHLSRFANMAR

Genome polyprotein = Genome polyprotein (dengue virus type 2, UniProt P29990); assay: Dengue-2 NS5 methyltransferase inhibitors, primary screen, biochemical, confirmation dose response (AID 588689); type: functional
Protein RecA = biological target: T2, Protein RecA (Mycobacterium tuberculosis, UniProt P9WHJ3); assay: Fluorescence Cell-Free Homogeneous Dose Retest to Identify Inhibitors of RecA-Intein Splicing Activity. [Related pubchem assays (depositor defined):AID2097, AID2223, AID489010, AID492950]; type: functional
T2 sequence (P9WHJ3 whole entry): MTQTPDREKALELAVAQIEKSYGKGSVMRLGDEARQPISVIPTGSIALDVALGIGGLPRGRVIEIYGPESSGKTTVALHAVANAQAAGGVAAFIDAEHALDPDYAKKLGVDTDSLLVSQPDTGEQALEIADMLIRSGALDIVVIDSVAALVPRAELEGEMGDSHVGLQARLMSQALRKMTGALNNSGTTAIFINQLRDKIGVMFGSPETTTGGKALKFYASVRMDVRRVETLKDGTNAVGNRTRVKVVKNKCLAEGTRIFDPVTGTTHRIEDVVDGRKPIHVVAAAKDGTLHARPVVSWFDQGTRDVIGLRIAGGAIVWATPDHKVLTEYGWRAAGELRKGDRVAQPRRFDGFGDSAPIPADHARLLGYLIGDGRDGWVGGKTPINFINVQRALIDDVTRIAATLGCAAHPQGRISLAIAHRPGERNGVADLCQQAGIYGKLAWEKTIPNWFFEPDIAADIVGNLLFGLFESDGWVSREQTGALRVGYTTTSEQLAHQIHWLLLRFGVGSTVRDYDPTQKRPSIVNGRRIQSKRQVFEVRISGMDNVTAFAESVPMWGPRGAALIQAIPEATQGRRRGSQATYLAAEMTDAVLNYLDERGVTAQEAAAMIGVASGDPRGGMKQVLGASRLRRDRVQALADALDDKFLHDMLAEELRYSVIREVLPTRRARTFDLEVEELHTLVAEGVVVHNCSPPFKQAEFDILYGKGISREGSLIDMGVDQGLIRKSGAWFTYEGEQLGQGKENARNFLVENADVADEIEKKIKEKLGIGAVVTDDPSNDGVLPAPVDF

[3] = biological target: T3, Mannose-6-phosphate isomerase (Homo sapiens, UniProt P34949); assay: human PMI inhibitors, high substrate, primary screen, biochemical, fluorescence intensity, high mannose 6-phosphate (AID 1220)
T3 sequence (P34949 whole entry): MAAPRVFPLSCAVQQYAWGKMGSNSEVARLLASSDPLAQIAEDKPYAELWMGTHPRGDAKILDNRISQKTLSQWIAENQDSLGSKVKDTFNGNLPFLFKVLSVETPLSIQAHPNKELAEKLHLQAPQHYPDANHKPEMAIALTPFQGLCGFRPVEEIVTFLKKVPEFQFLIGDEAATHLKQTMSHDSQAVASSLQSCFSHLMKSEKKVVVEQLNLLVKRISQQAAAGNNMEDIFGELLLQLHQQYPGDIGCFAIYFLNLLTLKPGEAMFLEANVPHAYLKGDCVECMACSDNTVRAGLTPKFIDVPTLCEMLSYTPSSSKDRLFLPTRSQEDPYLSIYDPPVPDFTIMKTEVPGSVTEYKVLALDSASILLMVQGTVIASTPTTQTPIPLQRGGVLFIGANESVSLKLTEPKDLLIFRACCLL

[4] = biological target: T4, Sentrin-specific protease 8 (Homo sapiens, UniProt Q96LD8); type: functional
T4 sequence (Q96LD8 whole entry): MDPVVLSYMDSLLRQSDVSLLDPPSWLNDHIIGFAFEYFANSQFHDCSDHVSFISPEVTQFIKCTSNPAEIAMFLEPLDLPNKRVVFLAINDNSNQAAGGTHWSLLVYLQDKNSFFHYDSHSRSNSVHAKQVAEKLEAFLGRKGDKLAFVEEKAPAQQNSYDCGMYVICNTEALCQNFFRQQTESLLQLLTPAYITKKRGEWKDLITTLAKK

[5] = biological target: T4, Sentrin-specific protease 8; type: functional; remark: listed apart in the source
Caspase-3 = biological target: T5, Caspase-3 (Homo sapiens, UniProt P42574); assay: Dose-response confirmation of uHTS inhibitor hits of Sentrin-Specific Protease 8 in a Caspase-3 Fluorescence assay.; type: functional
T5 sequence (P42574 whole entry): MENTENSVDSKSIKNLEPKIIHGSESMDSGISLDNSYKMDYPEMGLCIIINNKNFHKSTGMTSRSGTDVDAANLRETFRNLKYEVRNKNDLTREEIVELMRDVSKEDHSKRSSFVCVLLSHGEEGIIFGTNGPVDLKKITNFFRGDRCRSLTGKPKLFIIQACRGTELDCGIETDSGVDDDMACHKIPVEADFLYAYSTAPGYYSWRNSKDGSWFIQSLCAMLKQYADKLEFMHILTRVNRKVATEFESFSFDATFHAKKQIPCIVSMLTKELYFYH

[6] = Vibrio cholerae quorum sensing activators (AID 686977); type: functional
[7] = biological target: T6, Sentrin-specific protease 1 (Homo sapiens, UniProt Q9P0U3); assay: potency of human SENP1 inhibitors, dose response, biochemical, kinetic FRET (AID 651697); type: functional; details: read-out: IC50_Mean
[8] = biological target: T6, Sentrin-specific protease 1; assay: Dose response confirmation of small molecule inhibitors of the catalytic domain of the SUMO protease, SENP1 in a FRET assay.; type: functional; details: read-out: IC50_Mean
[9] = Vero E6 cell cytotoxicity, dose response, cytotoxicity control for non-replicating M. tuberculosis project, secondary assay (AID 492998); type: functional, VeroE6; details: Vero C1008
[10] = cytotoxicity toward NIH3T3 fibroblasts, dose response, counter-screen, cell-based, ATP luminescence, mouse fibroblasts (AID 2010); type: functional;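 note: cells exposed to compound for about 90 hours before reading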
Albumin = Albumin (Bos taurus, UniProt P02769); assay: Counterscreen for inhibitors of T-cell receptor (TCR)-CD3 interaction: Fluorescence-based biochemical high throughput dose response assay to identify inhibitors of T-cell receptor (TCR)-CD3 interaction using a TAMRA-labeled BSA probe.; type: functional
[11] = HepG2 cell cytotoxicity, dose response, cytotoxicity control for non-replicating M. tuberculosis project (AID 489018); type: functional; details: Mycobacterium tuberculosis
cells [12] = type: functional, cell-based
[13] = THP-1 cell cytotoxicity, dose response, cytotoxicity control for non-replicating M. tuberculosis project (AID 489025); type: functional
cells [14] = type: functional, cell-based; remark: listed apart in the source
[15] = inhibitors of intracellular T. cruzi replication, confirmation, NIH3T3 host cells, beta-gal luminescence (AID 2044); type: functional, cell-based;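 note: intracellular parasites grown in NIH/3T3 mouse fibroblasts as host cells; luminescent beta-galactosidase reporter signal from transgenic T. cruzi replicating inside host cells; inhibitors lower the luminescence signal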
[16] = biological target: Broad substrate specificity ATP-binding cassette transporter ABCG2 (Homo sapiens, UniProt Q9UNQ0); assay: ABCG2 efflux pump inhibitors, dose response, Ig-MXP3 cells, flow cytometry (AID 1690); type: functional
[17] = biological target: Fructose-bisphosphate aldolase (Mycobacterium tuberculosis, UniProt P9WQA3); assay: Fluorescence-based biochemical high throughput dose response assay for inhibitors of the fructose-bisphosphate aldolase (FBA) of M. tuberculosis.; type: functional
[18] = HEK293 cell viability, dose response, counter-screen for EBV LMP1 inhibitor project, dry powder, set 2 (AID 624374); type: functional
[19] = LMP1-driven NF-kB reporter inhibition, dose response, cell-based, luciferase reporter, luminescence, dry powder, set 2 (AID 624376); type: functional
Cryptococcus neoformans [20] = assay: PubChem AID 686997; type: functional, organism-based; details: Cryptococcus neoformans
Cryptococcus neoformans [21] = assay: Cryptococcus growth inhibition by alamar blue – cell lysis, cherry-picks, replicate tests, mechanism study for C. neoformans antifungal project, dose response (AID 686999); type: functional, organism-based
H9c2 = assay: cells; type: functional, cell-based; details: Rattus norvegicus, H9c2, Myocardium;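 note: confirmatory concentration-response retest of ultra-high-throughput screening hits for modulation of myocardial damage; cell death induced by hydrogen peroxide oxidative stress; compound pretreatment for 60 min then peroxide exposure for 2 h; potency is for protecting the cells against peroxide damage rather than for killing them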
[22] = Luminescence Cell-Based Dose Retest to Confirm Inhibitors of Cancer Stem Cells. [Related pubchem assays (depositor defined):AID2717, AID2721]; type: functional; details: Homo sapiens
[23] = HEK293T cell cytotoxicity, dose response, cytotoxicity control, CellTiter-Glo luminescence, cherry-picked samples, set 4 (AID 743441); type: functional, cell-based; details: HEK293
[24] = biological target: T7, Rac GTPase-activating protein 1 (Homo sapiens, UniProt Q9H0H5); assay: MgcRacGAP GTPase-activating activity inhibitors, confirmation, biochemical, ADP Hunter fluorescence, primary and confirmatory (AID 624330); type: functional
T7 sequence (Q9H0H5 whole entry): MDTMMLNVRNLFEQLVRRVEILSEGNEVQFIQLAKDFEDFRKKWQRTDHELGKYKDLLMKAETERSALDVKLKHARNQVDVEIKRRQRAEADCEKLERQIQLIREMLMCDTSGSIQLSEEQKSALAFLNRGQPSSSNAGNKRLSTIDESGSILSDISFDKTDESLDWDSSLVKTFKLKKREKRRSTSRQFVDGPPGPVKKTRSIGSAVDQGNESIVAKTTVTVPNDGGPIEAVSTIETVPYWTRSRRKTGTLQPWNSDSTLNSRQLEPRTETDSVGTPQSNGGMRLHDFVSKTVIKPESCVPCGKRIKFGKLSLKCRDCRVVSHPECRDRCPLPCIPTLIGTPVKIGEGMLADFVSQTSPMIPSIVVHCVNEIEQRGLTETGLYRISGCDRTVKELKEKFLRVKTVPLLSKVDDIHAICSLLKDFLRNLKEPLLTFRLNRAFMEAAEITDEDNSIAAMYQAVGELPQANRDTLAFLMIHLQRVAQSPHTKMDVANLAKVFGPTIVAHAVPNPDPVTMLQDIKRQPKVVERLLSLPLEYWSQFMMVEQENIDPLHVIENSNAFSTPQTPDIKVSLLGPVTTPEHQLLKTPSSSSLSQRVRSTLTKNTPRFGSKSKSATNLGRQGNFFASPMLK

[25] = HeLa cell cytotoxicity, dose response, cytotoxicity control for MgcRacGAP inhibitor project (AID 624300); type: functional
[26] = HEK293T cytotoxicity, dose response, cytotoxicity control for miR-122 modulator project, cell-based, inhibitor set, cherry-pick, set 2 (AID 720697); type: functional
Vero = assay: Vero cell toxicity, dose response, cytotoxicity control, plate reader, cherry-pick samples (AID 687020); type: functional, cell-based; details: Chlorocebus sabaeus
A549 = assay: A549 cell toxicity, dose response, cytotoxicity control, plate reader, cherry-pick samples (AID 687028); type: functional, cell-based; details: Homo sapiens

T6 sequence (Q9P0U3 whole entry, the tested form may be a part): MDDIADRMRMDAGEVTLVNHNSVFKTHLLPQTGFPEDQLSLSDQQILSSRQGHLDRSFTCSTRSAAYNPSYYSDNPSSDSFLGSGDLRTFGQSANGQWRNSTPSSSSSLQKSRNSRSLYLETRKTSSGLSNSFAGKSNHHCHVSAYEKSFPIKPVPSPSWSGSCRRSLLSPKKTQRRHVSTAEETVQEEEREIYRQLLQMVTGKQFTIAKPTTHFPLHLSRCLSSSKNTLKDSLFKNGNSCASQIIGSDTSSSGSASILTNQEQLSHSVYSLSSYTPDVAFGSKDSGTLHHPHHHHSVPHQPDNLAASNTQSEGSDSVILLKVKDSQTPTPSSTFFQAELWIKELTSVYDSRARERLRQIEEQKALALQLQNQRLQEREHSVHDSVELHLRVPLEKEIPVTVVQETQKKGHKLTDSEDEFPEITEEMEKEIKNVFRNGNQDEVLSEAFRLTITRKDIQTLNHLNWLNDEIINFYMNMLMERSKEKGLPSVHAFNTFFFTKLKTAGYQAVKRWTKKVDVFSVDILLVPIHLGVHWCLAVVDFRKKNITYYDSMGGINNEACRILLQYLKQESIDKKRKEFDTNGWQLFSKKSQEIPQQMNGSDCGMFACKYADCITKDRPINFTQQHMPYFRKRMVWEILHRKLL
Fructose-bisphosphate aldolase, sequence (P9WQA3 whole entry): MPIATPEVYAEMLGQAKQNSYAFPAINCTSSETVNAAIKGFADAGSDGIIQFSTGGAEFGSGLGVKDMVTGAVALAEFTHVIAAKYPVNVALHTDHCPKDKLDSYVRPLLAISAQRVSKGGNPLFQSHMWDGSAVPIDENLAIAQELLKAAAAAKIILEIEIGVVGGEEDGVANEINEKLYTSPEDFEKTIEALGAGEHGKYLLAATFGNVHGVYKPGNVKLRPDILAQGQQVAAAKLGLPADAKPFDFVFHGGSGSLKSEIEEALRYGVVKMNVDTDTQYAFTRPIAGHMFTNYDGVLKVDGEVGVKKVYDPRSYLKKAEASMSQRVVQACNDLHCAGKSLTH
Albumin, sequence (P02769 whole entry): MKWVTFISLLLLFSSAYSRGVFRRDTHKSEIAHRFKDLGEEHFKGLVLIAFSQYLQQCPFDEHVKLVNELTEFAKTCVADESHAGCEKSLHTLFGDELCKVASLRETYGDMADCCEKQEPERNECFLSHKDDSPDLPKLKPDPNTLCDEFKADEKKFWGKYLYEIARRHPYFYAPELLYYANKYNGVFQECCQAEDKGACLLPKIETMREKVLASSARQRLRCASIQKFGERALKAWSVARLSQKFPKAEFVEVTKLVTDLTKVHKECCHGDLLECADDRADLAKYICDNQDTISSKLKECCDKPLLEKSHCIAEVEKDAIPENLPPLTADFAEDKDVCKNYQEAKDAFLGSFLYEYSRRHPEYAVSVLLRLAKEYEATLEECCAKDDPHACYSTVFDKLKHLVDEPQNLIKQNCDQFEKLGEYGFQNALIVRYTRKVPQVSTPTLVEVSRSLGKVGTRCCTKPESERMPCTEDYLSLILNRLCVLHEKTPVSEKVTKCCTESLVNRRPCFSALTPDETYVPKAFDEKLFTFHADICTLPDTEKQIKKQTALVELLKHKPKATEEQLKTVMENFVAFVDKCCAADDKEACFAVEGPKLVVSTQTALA
Genome polyprotein, sequence (P29990 2492-3391 limits assumed): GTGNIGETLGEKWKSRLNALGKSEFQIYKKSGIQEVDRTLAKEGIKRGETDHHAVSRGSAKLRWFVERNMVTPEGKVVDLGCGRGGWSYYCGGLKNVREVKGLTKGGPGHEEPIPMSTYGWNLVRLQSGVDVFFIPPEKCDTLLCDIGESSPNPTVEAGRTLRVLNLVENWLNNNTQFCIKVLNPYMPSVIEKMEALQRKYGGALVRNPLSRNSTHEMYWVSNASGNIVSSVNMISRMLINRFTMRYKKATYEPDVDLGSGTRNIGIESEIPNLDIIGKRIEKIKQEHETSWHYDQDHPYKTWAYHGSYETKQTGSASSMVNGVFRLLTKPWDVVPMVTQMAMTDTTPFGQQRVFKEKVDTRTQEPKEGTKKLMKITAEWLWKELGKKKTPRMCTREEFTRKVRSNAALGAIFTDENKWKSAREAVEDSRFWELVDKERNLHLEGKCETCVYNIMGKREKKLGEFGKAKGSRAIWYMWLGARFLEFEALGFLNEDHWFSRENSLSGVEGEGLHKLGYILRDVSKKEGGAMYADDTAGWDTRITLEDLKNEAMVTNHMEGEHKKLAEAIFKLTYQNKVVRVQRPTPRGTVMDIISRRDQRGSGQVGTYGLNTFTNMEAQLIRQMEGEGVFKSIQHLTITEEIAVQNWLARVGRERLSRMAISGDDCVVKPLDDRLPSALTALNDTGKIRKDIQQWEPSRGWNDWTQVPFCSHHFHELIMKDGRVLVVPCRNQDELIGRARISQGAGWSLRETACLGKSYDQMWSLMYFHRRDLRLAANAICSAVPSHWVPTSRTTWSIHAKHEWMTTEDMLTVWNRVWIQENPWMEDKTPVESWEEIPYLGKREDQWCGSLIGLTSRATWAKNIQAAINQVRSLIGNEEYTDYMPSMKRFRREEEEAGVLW
Induced myeloid leukemia cell differentiation protein Mcl-1, sequence (Q07820 whole entry): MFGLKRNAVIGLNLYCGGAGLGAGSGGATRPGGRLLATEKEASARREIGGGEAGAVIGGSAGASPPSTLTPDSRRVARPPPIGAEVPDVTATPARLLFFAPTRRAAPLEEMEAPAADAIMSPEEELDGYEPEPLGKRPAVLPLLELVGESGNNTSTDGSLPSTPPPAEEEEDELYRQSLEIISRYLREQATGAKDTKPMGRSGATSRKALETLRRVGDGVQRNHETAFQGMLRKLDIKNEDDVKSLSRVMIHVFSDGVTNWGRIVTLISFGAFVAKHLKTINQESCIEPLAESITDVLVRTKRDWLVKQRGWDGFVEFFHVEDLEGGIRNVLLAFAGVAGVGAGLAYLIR
Broad substrate specificity ATP-binding cassette transporter ABCG2, sequence (Q9UNQ0 whole entry): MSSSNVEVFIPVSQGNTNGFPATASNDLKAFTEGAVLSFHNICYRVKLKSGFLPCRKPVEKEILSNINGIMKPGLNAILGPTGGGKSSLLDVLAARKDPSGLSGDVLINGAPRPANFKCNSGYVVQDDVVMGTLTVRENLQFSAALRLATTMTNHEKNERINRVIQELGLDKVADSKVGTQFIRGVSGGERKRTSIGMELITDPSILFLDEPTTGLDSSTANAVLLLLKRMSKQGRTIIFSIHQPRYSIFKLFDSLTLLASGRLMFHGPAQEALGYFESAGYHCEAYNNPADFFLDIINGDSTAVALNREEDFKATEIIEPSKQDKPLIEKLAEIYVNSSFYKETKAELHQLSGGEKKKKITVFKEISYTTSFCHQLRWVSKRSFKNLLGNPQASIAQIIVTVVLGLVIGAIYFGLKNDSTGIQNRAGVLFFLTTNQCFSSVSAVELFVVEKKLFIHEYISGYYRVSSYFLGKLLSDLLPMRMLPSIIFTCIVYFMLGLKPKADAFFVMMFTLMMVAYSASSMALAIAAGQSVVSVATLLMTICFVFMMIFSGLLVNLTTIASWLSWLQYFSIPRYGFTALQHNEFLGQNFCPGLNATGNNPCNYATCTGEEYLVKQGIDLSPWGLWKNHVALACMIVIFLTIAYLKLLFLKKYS

Compound: Nc1scc2c(C(=O)N/N=C/c3ccc(Cl)cc3)nn(-c3ccccc3)c(=O)c12
- IC50 [1]: 1.95 µM (active)
- AC50 [2]: 7.02 µM (active)
- IC50 (Genome polyprotein): 70.6 µM (active)
- EC50 (Protein RecA): 5.71 µM (active)
- IC50 [3]: > 50 µM (not active)
- IC50 [4]: 500 nM (active)
- IC50 [5]: 577 nM (active)
- IC50 (Caspase-3): 4.47 µM (active)

Compound: O=C(Nc1ccc(F)cc1F)c1sccc1SCc1cccc(C(F)(F)F)c1
- IC50 [6]: 77.9 µM (active)

Compound: CCOC(=O)/C=C/c1cc(F)ccc1O
- IC50 [7]: 13.8 µM (active)
- IC50 [8]: 11.2 µM (active)

Compound: O=C(N/N=C/c1cc(Br)cc(Br)c1O)c1cccc(N2CCCC2=O)c1
- CC50 [9]: 15 µM (active)
- EC50 [10]: > 60 µM (not active)
- IC50 (Albumin): > 94.1 µM (inactive)
- CC50 [11]: > 20 µM (active)
- EC50 (cells [12]): > 350 µM (not active)
- CC50 [13]: 15.2 µM (active)
- EC50 (cells [14]): 138 µM (active)
- EC50 [15]: 1.55 µM (active)

Compound: CC1=NN(c2ccc([N+](=O)[O-])cc2)C(=O)/C1=C/N(C)C
- EC50 [16]: 4 µM (active)

Compound: CC1=CC2=NCC(O)CN2C=C1 (stereo not drawn)
- IC50 [17]: 5.11 µM (active)

Compound: COc1cccc(-c2cccc(-c3nc(C(=O)NCC(F)(F)F)cc4c3[C@H](CCO)N([S@@+]([O-])C(C)(C)C)C4)c2)c1
- AbsAC35 [18]: 43.43 µM
- AbsAC35 [19]: 56.19 µM

Compound: COC(=O)C1=C(C)N(Cc2ccc(Cl)cc2)C(=S)NC1c1ccccc1 (stereo not drawn)
- AC50 (Cryptococcus neoformans [20]): 25.9 µM (active)
- AC50 (Cryptococcus neoformans [21]): 36.1 µM (active)

Compound: COc1ccc(-n2cc(-c3ccccc3)c3c(N4CCOCC4)ncnc32)cc1
- IC50 (H9c2): > 79 µM (inactive)
- AC50 [22]: 3.78 µM (active)
- AC50 [23]: 48.5 µM (active)

Compound: COc1cc(/C=N/NC(=O)CCn2c3ccccc3c3ccccc32)ccc1O
- IC50 [24]: 85.8 µM (active)
- CC50 [25]: 100 µM (active)

Compound: O=C1NC(=O)N(CCC2=CCCCC2)C(=O)/C1=C\c1cccs1
- AC50 [26]: 1.06 µM (active)

Compound: COc1ccc(S(=O)(=O)N(CC(C)C)CC(C)C)c2cccnc12
- AC50 (Vero): 39 µM (active)
- AC50 (A549): 19.5 µM (active)
